Measured values taken from patent US20210038559A1, “CANNABINOIDS AND DERIVATIVES FOR PROMOTING IMMUNOGENICITY OF TUMOR AND INFECTED CELLS” (priority 2018, published 2021).

B1: Interferon-γ: a natural cytokine known to stimulate MHC class I expression in many mammalian cells (protein, UniProt P01579 24-161, looked up)
Interferon gamma: QDPYVKEAENLKKYFNAGHSDVADNGTLFLGILKNWKEESDRKIMQSQIVSFYFKLFKNFKDDQSIQKSVETIKEDMNVKFFNSNKKKRDDFEKLTNYSVTDLNVQRKAIHELIQVMAELSPAAKTGKRKRSQMLFRG

Assays:
[1] = test system: MHC-I expression on COLO 205 cells; experiment: Phytocannabinoid MHC-I induction on COLO 205 cells, 0-100 μM, 48 hours; details: for MHC-I expression induction: COLO 205, endogenous cannabinoids; for Fold Induction: MHC-I expression on COLO 205 cells, relative to control cells treated only with buffer
Description: FIG. 4. Cell surface MHC class I expression was measured by flow cytometry (MFI).
Phytocannabinoids were tested for MHC-I-inducing activity on COLO 205 cells. Each cannabinoid was tested at a concentration range of 0-100 μM. […] “ND” indicates not determined.

[2] = test system: MHC-I expression by COLO 205 cells; experiment: cells; assay type: cell-based, human; details: for fold induction at 35 µM: Homo sapiens, COLO 205, 48 h, MHC-I expression, COLO 205 cells, compounds at 35 μM, 48 hours, flow cytometry (W6/32), read-out: Induction Fold
Description: A panel of synthetic cannabinoids (Cayman Chemical, #9002891) was tested for MHC class I-inducing capability in COLO 205 cells as described above. COLO 205 cells were treated with the compounds at a concentration of 35 μM and evaluated for cell surface MHC class I expression after 48 hours. Cells were harvested, stained with MHC-I mAb W6/32 (Thermo Fisher). MHC-I expression was determined by flow cytometry.

[3] = test system: MHC class I expression on COLO 205 cells; experiment: MHC class I expression on COLO 205 cells, 24 hours, flow cytometry (W6/32)
Description: FIG. 2A-2F. […] Cells were treated for 24 hours and cell surface MHC class I expression was measured by flow cytometry.
Cannabigerol was also tested for its capacity to induce MHC class I expression in a human colorectal carcinoma cell line, COLO 205. The cells were treated with either 25 μM or 50 μM cannabigerol for 24 hours. Fluorophor (Alexa Fluor 488)-conjugated W6/32 antibody (Thermo Fisher) was used in a flow cytometry assay to quantitate MHC class I expression. […] Cannabigerol is only one of many cannabinoid-like molecules with potential biopharmaceutical activity. […] COLO 205 cells were treated with up to 40 μM of the cannabinoids 1-5 presented in Tables 1 and 2 and evaluated for cell surface MHC class I expression as described above for cannabigerol.

[4] = induction of MHC-I expression on COLO 205 cells, 0-100 μM, 48 hours

Molecule	Induction Fold [2] [Fold]	Fold Induction ([1]; 0-100 μM, 48 hours) [Fold]	further results
CCCCC/C=C\C/C=C\C/C=C\C/C=C\CCCC(=O)NCCO [AEA, N-arachidonoylethanolamine, reference compound]			MHC-I expression induction [1]: do not induce MHC-I expression
CCCCC/C=C\C/C=C\C/C=C\C/C=C\CCCC(=O)OC(CO)CO [Example 2-AG, 2-Arachidonoylglycerol, reference compound]			MHC-I expression induction [1]: do not induce MHC-I expression
CCCCCCC(C)(C)c1ccc([C@H]2CCC[C@@H](O)C2)c(O)c1 [Example 371, 2[(1S,3R)-3-hydroxycyclohexyl]-5-(2-methyloctan-2-yl)phenol]			fold induction at 35 µM [2]: 0.78
CCCCCn1c(C)c(C(=O)c2ccc(OC)c3ccccc23)c2ccccc21 [Example 372, (4-methoxy-1-naphthalenyl)(2-methyl-1-pentyl-1H-indol-3-yl)-methanone]			fold induction at 35 µM [2]: 0.6
O=C(Nc1cccc2ccccc12)c1cn(CCCCCF)c2ccncc12 [Example 373, 1-(5-fluoropentyl)-N-(naphthalen-1-yl)-1H-pyrrolo[3,2-c]pyridine-3-carboxamide]			fold induction at 35 µM [2]: 0.49
CS(=O)(=O)O.Cc1c(C(=O)c2cccc3ccccc23)c2cccc3c2n1C(CN1CCOCC1)CO3 (stereo not drawn) [Example 376, [2,3-dihydro-5-methyl-3-(4-morpholinylmethyl)pyrrolo[1,2,3-de]-1,4-benzoxazin-6-yl]-1-naphthalenyl-methanone, methanesulfonate]	0.32		
C=C(C)[C@@H]1CCC(C)=C[C@H]1C1=C(O)C(=O)C(CCCCC)=CC1=O [Example 377, 3-hydroxy-2-[(1R,6R)-3-methyl-6-(1-methylethenyl)-2-cyclohexen-1-yl]-5-pentyl-2,5-cyclohexadiene-1,4-dione]			fold induction at 35 µM [2]: 0.3
CCCCCCC(C)(C)c1cc(O)c2c(c1)OC(C)(C)[C@@H]1CC=C(CO)C[C@@H]21 [Example 378, 3-(1,1′-dimethylheptyl)-6aR,7,10,10aR-tetrahydro-1-hydroxy-6,6-dimethyl-6H-dibenzo[b,d]pyran-9-methanol]			fold induction at 35 µM [2]: 0.21
CS(=O)(=O)O.Cc1c(C(=O)c2cccc3ccccc23)c2cccc3c2n1[C@H](CN1CCOCC1)CO3 [Example 379, [(3R)-2,3-dihydro-5-methyl-3-(4-morpholinylmethyl)pyrrolo[1,2,3-de]-1,4-benzoxazin-6-yl]-1-naphthalenyl-methanone, methanesulfonate]	0.21		
CCCc1cc(O)c2c(c1)OC(C)(CCC=C(C)C)C=C2 (stereo not drawn) [Example 381, 2-methyl-2-(4-methylpent-3-enyl)-7-propylchromen-5-ol]		3.3	EC50 ([1]; Homo sapiens, COLO 205, 48 h): 32 µM
CCCCCc1cc2c3c(c1)OC(C)(C)C1CCC(C)(CC31)O2 (stereo not drawn) [Example 382, (6aα,9β,10aα)-6a,7,8,9,10,10a-hexahydro-6,6,9-trimethyl-3-pentyl-1,9-epoxy-6H-dibenzo[b,d]pyran]		1.3	
CCCCCc1cc(O)c2c(c1)OC(C)(C)[C@@H]1CC=C(C)C[C@@H]21 [Example 383, 6aR,7,10,10aR-tetrahydro-6,6,9-trimethyl-3-pentyl-6H-dibenzo[b,d]pyran-1-ol]		4.1	EC50 [1, 4]: 27 µM
CCCCCc1cc(O)c2c(c1)OC(C)(C)[C@@H]1CCC(C)=C[C@@H]21 [Example 384, 6aR,7,8,10aR-tetrahydro-6,6,9-trimethyl-3-pentyl-6H-dibenzo[b,d]pyran-1-ol]		6.1	EC50 [1, 4]: 30 µM
CCCc1cc(O)c2c(c1)OC(C)(C)c1ccc(C)cc1-2 [Example 385, 6,6,9-trimethyl-3-propyl-6H-dibenzo[b,d]pyran-1-ol]		3.9	EC50 ([1]; Homo sapiens, COLO 205, 48 h): 20 µM
C=C(C)[C@@H]1CCC(C)=C[C@H]1c1c(O)cc(CCC)cc1O [Example 386, 2-[(1R,6R)-3-methyl-6-(1-methylethenyl)-2-cyclohexen-1-yl]-5-propyl-1,3-benzenediol]		5.5	EC50 ([1]; Homo sapiens, COLO 205, 48 h): 19 µM
CCCCCc1cc(OC)c2c(c1)OC(C)(C)c1ccc(C)cc1-2 [Example 387, 1-methoxy-6,6,9-trimethyl-3-pentyl-6H-dibenzo[b,d]pyran]		2.3	EC50 ([1]; Homo sapiens, COLO 205, 48 h): 30 µM
CC(C)=CCC/C(C)=C/Cc1c(O)cc(C)cc1O [Example 388, 2-[(2E)-3,7-dimethyl-2,6-octadien-1-yl]-5-methyl-1,3-benzenediol]		2.7	EC50 ([1]; Homo sapiens, COLO 205, 48 h): 36 µM
CC(C)=CCC/C(C)=C/Cc1c(O)cc(C)c(C(=O)O)c1O [Example 389, 3-[(2E)-3,7-dimethyl-2,6-octadien-1-yl]-2,4-dihydroxy-6-methyl-benzoic acid]		2.6	
(1-butyl-6-methoxy-1H-indol-3-yl)-1-naphthalenyl-methanone [Example 107]	2.39		
(1-ethyl-1H-indol-3-yl)-1-naphthalenyl-methanone [Example 272]	1.53		
(1-heptyl-5-phenyl-1H-pyrrol-3-yl)-1-naphthalenyl-methanone [Example 212]	1.83		
(1-hexyl-1H-indol-3-yl)-1-naphthalenyl-methanone [Example 140]	2.19		
(1-hexyl-1H-pyrrol-3-yl)-1-naphthalenyl-methanone [Example 72]	2.68		
(1-hexyl-5-phenyl-1H-pyrrol-3-yl)-1-naphthalenyl-methanone [Example 82]	2.54		
(2-ethyl-1-pentyl-1H-indol-3-yl)-1-naphthalenyl-methanone [Example 154]	2.11		
[1-(5-fluoropentyl)-6-nitro-1H-indol-3-yl]-1-naphthalenyl-methanone [Example 280]	1.49		
[2-methyl-1-(1-methylhexyl)-1H-indol-3-yl]-1-naphthalenyl-methanone [Example 137]	2.22		
[5-(2-chlorophenyl)-1-pentyl-1H-pyrrol-3-yl]-1-naphthalenyl-methanone [Example 63]	2.77		
[5-(3-fluorophenyl)-1-pentyl-1H-pyrrol-3-yl]-1-naphthalenyl-methanone [Example 109]	2.37		
B1			Fold Induction ([3]; COLO 205, 0.004 ng/mL): 0.98; Fold Induction ([3]; COLO 205, 0.040 ng/mL): 2.07; Fold Induction ([3]; COLO 205, 1.000 ng/mL): 3.99
